Data published in ChEMBL document CHEMBL1201862, “PubChem BioAssay data set” (2004).
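Assay format: 96-well plates, 48-hour exposure. Abbreviation: GI50, concentration required for 50% inhibition of growth.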 Activity calls are given as the source filed them. Cut-off read from the data, not from the text of the source: active = GI50 up to about 1.1 µM and inactive = higher.

What was measured:
Assay in all cases: NCI tumour cell line growth inhibition, 48 h
786-0 = tested on: 786-0
A498 = tested on: A498
A549 = tested on: A549
ACHN = tested on: ACHN
BT-549 = tested on: BT-549
CAKI-1 = tested on: CAKI-1
CCRF-CEM = tested on: CCRF-CEM
COLO 205 = tested on: COLO 205
DU-145 = tested on: DU-145
EKVX = tested on: EKVX
HCC 2998 = tested on: HCC 2998
HCT-116 = tested on: HCT-116
HCT-15 = tested on: HCT-15
HL-60 = tested on: HL-60
HOP-62 = tested on: HOP-62
HOP-92 = tested on: HOP-92
HT-29 = tested on: HT-29
Hs-578T = tested on: Hs-578T
IGROV-1 = tested on: IGROV-1
K562 = tested on: K562
KM12 = tested on: KM12
LOX IMVI = tested on: LOX IMVI
M14 = tested on: M14
MCF7 = tested on: MCF7
MDA-MB-231 = tested on: MDA-MB-231
MDA-MB-435 = tested on: MDA-MB-435
MDA-N = tested on: MDA-N
MOLT-4 = tested on: MOLT-4
Malme-3M = tested on: Malme-3M
NCI-H226 = tested on: NCI-H226
NCI-H23 = tested on: NCI-H23
NCI-H460 = tested on: NCI-H460
NCI-H522 = tested on: NCI-H522
NCI/ADR-RES = tested on: NCI/ADR-RES
OVCAR-3 = tested on: OVCAR-3
OVCAR-4 = tested on: OVCAR-4
OVCAR-5 = tested on: OVCAR-5
OVCAR-8 = tested on: OVCAR-8
RPMI-8226 = tested on: RPMI-8226
RXF 393 = tested on: RXF 393
SF-268 = tested on: SF-268
SF-295 = tested on: SF-295
SF-539 = tested on: SF-539
SK-MEL-28 = tested on: SK-MEL-28
SK-MEL-2 = tested on: SK-MEL-2
SK-MEL-5 = tested on: SK-MEL-5
SK-OV-3 = tested on: SK-OV-3
SN12C = tested on: SN12C
SNB-19 = tested on: SNB-19
SNB-75 = tested on: SNB-75
SR = tested on: SR
SW-620 = tested on: SW-620
T47D = tested on: T47D
TK-10 = tested on: TK-10
UACC-257 = tested on: UACC-257
UACC-62 = tested on: UACC-62
UO-31 = tested on: UO-31

**Q.** `CC(=O)c1[nH]c(NC(C)C)c(C(=S)Nc2ccccc2)c1N` was tested. Which GI50 (786-0) did it give?
**A.** Its GI50 is 24.3 µM (inactive).

**Q.** What about the GI50 (A498) of the same molecule?
**A.** Its GI50 is 18.9 µM (inactive).

**Q.** And the GI50 (A549)?
**A.** The GI50 was 32.3 µM (inactive).

**Q.** And the GI50 (ACHN)?
**A.** Its GI50 is 33.3 µM (inactive).

**Q.** What about the GI50 (BT-549) of the same molecule?
**A.** Its GI50 is 30.5 µM (inactive).

**Q.** What about the GI50 (CAKI-1) of the same molecule?
**A.** The GI50 was 32.9 µM (inactive).

**Q.** What about the GI50 (CCRF-CEM) of the same molecule?
**A.** Its GI50 is 25.5 µM (inactive).

**Q.** And the GI50 (COLO 205)?
**A.** The GI50 was 27.9 µM (inactive).

**Q.** And the GI50 (DU-145)?
**A.** The GI50 was 26.7 µM (inactive).

**Q.** What about the GI50 (EKVX) of the same molecule?
**A.** The GI50 was 37 µM (inactive).

**Q.** What about the GI50 (HCC 2998) of the same molecule?
**A.** The GI50 was 28.2 µM (inactive).

**Q.** And the GI50 (HCT-116)?
**A.** The GI50 was 24.1 µM (inactive).

**Q.** And the GI50 (HCT-15)?
**A.** The GI50 was 26.9 µM.

**Q.** What about the GI50 (HL-60) of the same molecule?
**A.** The GI50 was 51.6 µM (inactive).

**Q.** And the GI50 (HOP-62)?
**A.** Its GI50 is 38 µM (inactive).

**Q.** And the GI50 (HOP-92)?
**A.** The GI50 was 17.7 µM (inactive).

**Q.** And the GI50 (HT-29)?
**A.** Its GI50 is 38.8 µM (inactive).

**Q.** What about the GI50 (Hs-578T) of the same molecule?
**A.** Its GI50 is 36 µM (inactive).

**Q.** What about the GI50 (IGROV-1) of the same molecule?
**A.** The GI50 was 26.4 µM (inactive).

**Q.** And the GI50 (K562)?
**A.** The GI50 was 33.4 µM (inactive).

**Q.** What about the GI50 (KM12) of the same molecule?
**A.** The GI50 was 29.6 µM (inactive).

**Q.** And the GI50 (LOX IMVI)?
**A.** Its GI50 is 19.1 µM (inactive).

**Q.** What about the GI50 (M14) of the same molecule?
**A.** Its GI50 is 19.8 µM (inactive).

**Q.** And the GI50 (MCF7)?
**A.** Its GI50 is 19.5 µM (inactive).

**Q.** And the GI50 (MDA-MB-231)?
**A.** Its GI50 is 22.3 µM (inactive).

**Q.** What about the GI50 (MDA-MB-435) of the same molecule?
**A.** Its GI50 is 21.7 µM (inactive).

**Q.** And the GI50 (MDA-N)?
**A.** Its GI50 is 22.1 µM (inactive).

**Q.** What about the GI50 (MOLT-4) of the same molecule?
**A.** The GI50 was 37.2 µM (inactive).

**Q.** What about the GI50 (Malme-3M) of the same molecule?
**A.** Its GI50 is 25.7 µM (inactive).

**Q.** And the GI50 (NCI-H226)?
**A.** Its GI50 is 21.1 µM (inactive).

**Q.** What about the GI50 (NCI-H23) of the same molecule?
**A.** The GI50 was 36 µM (inactive).

**Q.** And the GI50 (NCI-H460)?
**A.** Its GI50 is 31.8 µM (inactive).

**Q.** And the GI50 (NCI-H522)?
**A.** The GI50 was 16.6 µM (inactive).

**Q.** What about the GI50 (NCI/ADR-RES) of the same molecule?
**A.** Its GI50 is 68.5 µM (inactive).

**Q.** What about the GI50 (OVCAR-3) of the same molecule?
**A.** The GI50 was 32.1 µM (inactive).

**Q.** And the GI50 (OVCAR-4)?
**A.** The GI50 was 30.4 µM (inactive).

**Q.** And the GI50 (OVCAR-5)?
**A.** The GI50 was 61.8 µM (inactive).

**Q.** What about the GI50 (OVCAR-8) of the same molecule?
**A.** Its GI50 is 28.4 µM (inactive).

**Q.** And the GI50 (RPMI-8226)?
**A.** The GI50 was 0.059 µM (active).

**Q.** What about the GI50 (RXF 393) of the same molecule?
**A.** The GI50 was 18.4 µM (inactive).

**Q.** What about the GI50 (SF-268) of the same molecule?
**A.** Its GI50 is 25.3 µM (inactive).

**Q.** And the GI50 (SF-295)?
**A.** The GI50 was 38.1 µM (inactive).

**Q.** What about the GI50 (SF-539) of the same molecule?
**A.** Its GI50 is > 100 µM (inactive).

**Q.** What about the GI50 (SK-MEL-28) of the same molecule?
**A.** Its GI50 is 32.4 µM (inactive).

**Q.** And the GI50 (SK-MEL-2)?
**A.** The GI50 was 17.9 µM (inactive).

**Q.** And the GI50 (SK-MEL-5)?
**A.** The GI50 was 18.3 µM (inactive).

**Q.** And the GI50 (SK-OV-3)?
**A.** Its GI50 is 65.9 µM (inactive).

**Q.** What about the GI50 (SN12C) of the same molecule?
**A.** Its GI50 is 27.9 µM (inactive).

**Q.** What about the GI50 (SNB-19) of the same molecule?
**A.** The GI50 was 27.8 µM (inactive).

**Q.** What about the GI50 (SNB-75) of the same molecule?
**A.** The GI50 was > 100 µM (inactive).

**Q.** What about the GI50 (SR) of the same molecule?
**A.** The GI50 was 23.7 µM (inactive).

**Q.** And the GI50 (SW-620)?
**A.** The GI50 was 54.1 µM (inactive).

**Q.** What about the GI50 (T47D) of the same molecule?
**A.** Its GI50 is 21.4 µM (inactive).

**Q.** And the GI50 (TK-10)?
**A.** The GI50 was 40.8 µM (inactive).

**Q.** What about the GI50 (UACC-257) of the same molecule?
**A.** The GI50 was 24 µM (inactive).

**Q.** And the GI50 (UACC-62)?
**A.** Its GI50 is 23.6 µM (inactive).

**Q.** And the GI50 (UO-31)?
**A.** The GI50 was 20.5 µM (inactive).
